Laboratory results from US20030215462A1, “Use of UGT inhibitors to increase bioavailability” (priority 2001, published 2003).
In brackets after ≈: the same amount, converted by molar mass. Several values for one entry are separate records, joined by “and”; a condition that tells them apart may be missing. Identical values can stand only once.

Experiments:
human liver microsomes [1] = assay: Glucuronidation of UGT substrates by human liver microsomes; conditions: for substrate loss, 2ME2: 2ME2 50 μM
[2] = tested on: pooled human jejunum microsomes; assay: Glucuronidation of UGT substrates by pooled human jejunum microsomes; conditions: jejunum HJ61, 50 μg/ml; 2ME2 50 μM
[3] = tested on: T1, UGT enzymes of human liver microsomes; assay: Inhibition of 2ME2 glucuronidation (MG1, MG2) in human liver microsomes; assay type: biochemical; conditions: liver 062101, 2ME2 50 μM
T1 construct: other: liver 062101
Source text: (§1) Compounds were eluted using a binary solvent gradient system where solvent A was dilute phosphoric acid (pH 3) and solvent B was 80:20 acetonitrile-methanol. […] Detection was at 280 nm.

[4] = tested on: UGT enzymes of human liver microsomes; assay: as above; assay type: biochemical; conditions: liver 062101, 2ME2 50 μM
Source text: as §1

[5] = Solubility in microsomal incubation mixtures
[6] = biological target: T2, UGT enzymes of human liver microsomes (Homo sapiens, UniProt P16662); assay: Inhibition of zidovudine glucuronidation in human liver microsomes; assay type: biochemical; conditions: liver lot 062101
T2 construct: residual metabolism (percentage of control), zidovudine glucuronidation; other: liver lot 062101; residual metabolism (percentage of control), zidovudine glucuronidation; residual metabolism (percentage of control)
T2 sequence (P16662 1-529): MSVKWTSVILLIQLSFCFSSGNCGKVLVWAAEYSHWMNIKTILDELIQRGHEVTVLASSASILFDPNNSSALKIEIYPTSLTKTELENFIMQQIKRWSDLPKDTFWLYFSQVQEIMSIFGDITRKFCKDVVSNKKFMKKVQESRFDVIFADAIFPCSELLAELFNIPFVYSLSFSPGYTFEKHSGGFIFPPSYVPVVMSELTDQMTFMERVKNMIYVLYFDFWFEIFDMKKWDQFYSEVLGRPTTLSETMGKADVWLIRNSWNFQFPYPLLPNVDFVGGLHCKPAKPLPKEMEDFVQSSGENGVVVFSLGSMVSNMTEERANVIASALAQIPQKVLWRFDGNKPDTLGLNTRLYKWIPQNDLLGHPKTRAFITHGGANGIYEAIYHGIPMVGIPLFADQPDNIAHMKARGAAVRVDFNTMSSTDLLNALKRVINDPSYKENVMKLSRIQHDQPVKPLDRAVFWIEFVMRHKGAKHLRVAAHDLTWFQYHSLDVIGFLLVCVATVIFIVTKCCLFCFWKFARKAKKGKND
Method: Compounds were eluted using a binary solvent gradient system where solvent A was dilute phosphoric acid (pH 3) and solvent B was acetonitrile.
Standardized incubations utilized 500 μM zidovudine substrate, 1 mg/ml microsomal protein, 5 mM UDPGA and a 30 min incubation time. […] Int.

in vivo = conditions: female, Sprague-Dawley, rat, po, 10 mg/kg
Method: Female Sprague-Dawley rats (220-250 g body weight) with cannulae inserted into the jugular vein were purchased from Hilltop Animals Inc. (Scottsdale, Pa.). Catheter patency was maintained using a heparin lock. Animals were individually housed at 18-26° C. and allowed free movement and access to water. Rats were fed standard Laboratory Rodent Diet during a minimum 1-day acclimatization period but were fasted from at least 8 h prior to dose administration and were not administered food throughout the study.
Immediately prior to treatment, the ethanol was removed by nitrogen evaporation and rats were administered 1 ml/kg of each emulsion using a standard gavage needle. […] Blood volume was replaced with saline after each sample. Whole blood samples were collected in Microtainer® tubes (Becton-Dickinson, Franklin Lakes, N.J.) containing sodium EDTA anti-coagulant. Erythrocytes were precipitated by centrifugation (2800 rpm×10-20 min) and plasma samples were stored in the freezer prior to extraction and analysis.
Plasma samples (100 μl) were extracted by vortex mixing for 60 sec with 200 μl extraction solvent (80% acetonitrile 20% 2 mM NH4OAc pH 9) and 20 μl internal standard solution (1 μM tamoxifen in methanol). […] The lower limit of quantitation was 2 ng/ml.

[7] = tested on: UGT enzymes of pooled human jejunum microsomes; assay: Inhibition of 2ME2 glucuronidation (MG1) in pooled human jejunum microsomes; assay type: biochemical; conditions: jejunum HJ61, 2ME2 50 μM
Source text: as §1

human liver microsomes [8] = conditions: cited from earlier work
[9] = humans; cited from earlier work
[10] = tested on: T3, UGT enzymes of human liver microsomes; assay: Inhibition of 7-HFC glucuronidation in human liver microsomes; assay type: biochemical; conditions: inhibitor 500 μM; 7-HFC 50 μM, human liver microsomes 100 μg/ml, 15 min
T3 construct: percentage of control metabolism, 7-HFC glucuronidation; percentage of control metabolism, 7-HFC glucuronidation

[11] = tested on: UGT enzymes of human liver microsomes; assay: Inhibition of raloxifene glucuronidation (G1, G2) in human liver microsomes; assay type: biochemical
Source text: Compounds were eluted using a binary solvent gradient system. […] Solvent B was methanol. […] Detection was at 280 nm.

COc1cc2c(cc1O)CC[C@@H]1[C@@H]2CC[C@]2(C)[C@@H](O)CC[C@@H]12 [2ME2, 2-Methoxyestradiol]
total loss of 2ME2 from liver microsomal incubation after 60 min (human liver microsomes [1]; 50 μM substrate): 42% | substrate loss, 2ME2 (human liver microsomes [1]; liver lot 032101, 250 μg/ml): 1,573 ± 243 pmol/min/mg | substrate loss, 2ME2 (human liver microsomes [1]; liver lot 062101, 250 μg/ml): 1,035 ± 52 pmol/min/mg | substrate loss, 2ME2 [2]: 19,797 ± 631 pmol/min/mg | NADPH-dependent metabolism, in words (cytochrome(s) P450): Negligible NADPH-dependent metabolism

O=C(c1ccc(OCCN2CCCCC2)cc1)c1c(-c2ccc(O)cc2)sc2cc(O)ccc12 [Raloxifene, raloxifene, reference compound]
residual metabolism (% of control), 2ME2 MG1 ([3]; inhibitor 25 μM): 42 (0) % | residual metabolism (% of control), 2ME2 MG2 ([3]; inhibitor 25 μM): 70 (0) % | residual metabolism (% of control), 2ME2 MG1 ([3]; inhibitor 50 μM): 32 (2) % | residual metabolism (% of control), 2ME2 MG2 ([3]; inhibitor 50 μM): 41 (2) % | residual metabolism (% of control), 2ME2 MG1 ([3]; inhibitor 100 μM): 24 (2) % | residual metabolism (% of control), 2ME2 MG2 ([3]; inhibitor 100 μM): 20 (1) % | residual metabolism (% of control), 2ME2 MG1 ([4]; inhibitor 5 μM): 77 (1) % | residual metabolism (% of control), 2ME2 MG2 ([4]; inhibitor 5 μM): 98 (1) % | residual metabolism (% of control), 2ME2 MG1 ([4]; inhibitor 10 μM): 63 (1) % | residual metabolism (% of control), 2ME2 MG2 ([4]; inhibitor 10 μM): 88 (0) % | solubility in the microsomal incubation ([5]; 500 μM): insoluble | solubility ([5]; microsomal incubation mixtures): 100 µM (≈ 47.4 µg/mL) | residual metabolism (percentage of control), zidovudine glucuronidation ([6]; inhibitor 100 μM): 76 (3) % | residual metabolism (percentage of control), zidovudine glucuronidation ([6]; inhibitor 200 μM): 32 (4) % | AUC(0-t) (in vivo; Raloxifene AUC0-8): 77 ± 61 ng·h/mL | AUC(0-t) (in vivo; Raloxifene AUC0-24): 114 ± 90 ng·h/mL | residual metabolism (% of control), 2ME2 MG1 ([7]; inhibitor 5 μM): 73 (1) % | residual metabolism (% of control), 2ME2 MG1 ([7]; inhibitor 10 μM): 58 (1) % | residual metabolism (% of control), 2ME2 MG1 ([7]; inhibitor 25 μM): 31 (3) % | residual metabolism (% of control), 2ME2 MG1 ([7]; inhibitor 50 μM): 17 (0) % | residual metabolism (% of control), 2ME2 MG1 ([7]; inhibitor 100 μM): 12 (0) %

Cc1cn([C@H]2C[C@H](N=[N+]=[N-])[C@@H](CO)O2)c(=O)[nH]c1=O [Zidovudine, zidovudine, reference compound]
Km (human liver microsomes [8]): 3 to 5 mM | absolute oral bioavailability [9]: 65% and 52-75% | % of control metabolism (SD, n = 3), 7-HFC glucuronidation [10]: 99 (1) % | % of control metabolism (SD, n = 3), raloxifene glucuronide G1 [11]: 93 (3) % | % of control metabolism (SD, n = 3), raloxifene glucuronide G2 [11]: 93 (1) %
